Experimental data published in ChEMBL document CHEMBL1201862, “PubChem BioAssay data set” (2004).
Calls of active or inactive are those of the source.

Assays:
[1] = molecular target: Adenosylmethionine-8-amino-7-oxononanoate aminotransferase (Mycobacterium tuberculosis, UniProt P9WQ81); assay: Mycobacterium tuberculosis BioA enzyme inhibitor Measured in Biochemical System Using Plate Reader - 2163-02_Inhibitor_Dose_CherryPick_Activity.; assay type: functional, Mycobacterium tuberculosis UT205
[2] = LGR2 antagonists, dose response, cell-based, HEK293, CRE-luciferase reporter, cherry pick, set 2 (AID 743343); assay type: functional;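 note: transfected cells were stimulated with diluted bursicon conditioned medium after compound addition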
[3] = molecular target: T1, Sentrin-specific protease 6 (Homo sapiens, UniProt Q9GZR1); assay type: functional;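 note: Luminescence-based dose-response confirmatory assay of SENP6 inhibition, following up an ultra-high-throughput screen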
T1 sequence (Q9GZR1 whole entry): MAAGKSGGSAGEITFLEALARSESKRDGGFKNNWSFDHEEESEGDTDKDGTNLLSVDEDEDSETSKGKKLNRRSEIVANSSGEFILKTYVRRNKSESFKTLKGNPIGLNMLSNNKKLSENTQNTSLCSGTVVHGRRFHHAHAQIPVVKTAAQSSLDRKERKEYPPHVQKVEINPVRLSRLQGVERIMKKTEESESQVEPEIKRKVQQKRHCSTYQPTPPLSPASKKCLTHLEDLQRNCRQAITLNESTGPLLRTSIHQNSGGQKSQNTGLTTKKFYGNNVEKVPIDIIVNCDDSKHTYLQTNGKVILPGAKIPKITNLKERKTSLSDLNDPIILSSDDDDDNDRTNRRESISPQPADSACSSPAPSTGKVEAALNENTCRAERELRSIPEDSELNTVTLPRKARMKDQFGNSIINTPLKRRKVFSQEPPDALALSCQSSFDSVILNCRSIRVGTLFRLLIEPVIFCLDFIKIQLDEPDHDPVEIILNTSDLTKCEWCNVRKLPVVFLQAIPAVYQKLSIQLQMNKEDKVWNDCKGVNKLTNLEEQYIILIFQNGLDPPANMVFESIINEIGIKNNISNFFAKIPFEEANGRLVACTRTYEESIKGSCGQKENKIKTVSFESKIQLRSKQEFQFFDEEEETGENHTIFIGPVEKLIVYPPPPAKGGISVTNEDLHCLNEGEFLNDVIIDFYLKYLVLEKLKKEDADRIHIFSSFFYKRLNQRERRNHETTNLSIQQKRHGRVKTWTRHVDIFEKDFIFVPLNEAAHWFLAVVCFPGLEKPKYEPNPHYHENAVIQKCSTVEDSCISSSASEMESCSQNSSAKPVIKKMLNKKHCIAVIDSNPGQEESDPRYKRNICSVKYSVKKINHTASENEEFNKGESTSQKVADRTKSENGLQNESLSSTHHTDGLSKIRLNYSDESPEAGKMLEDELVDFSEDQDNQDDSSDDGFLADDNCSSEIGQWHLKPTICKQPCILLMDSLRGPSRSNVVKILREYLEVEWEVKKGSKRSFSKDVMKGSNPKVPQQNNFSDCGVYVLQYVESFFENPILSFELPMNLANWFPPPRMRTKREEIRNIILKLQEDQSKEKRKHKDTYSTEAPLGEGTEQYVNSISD

[4] = HepG2 cell cytotoxicity, dose response, cytotoxicity control, plate reader, cherry-pick, antagonist series (AID 743416); assay type: functional, cell-based
[5] = MC4R antagonists, dose response, counter-screen for LGR2 antagonist project, cell-based, plate reader, cherry pick (AID 743444); assay type: functional;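 note: transfected HEK 293 cells stimulated with alpha-MSH peptide; potency of inhibitors of the alpha-MSH evoked signal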
[6] = molecular target: T2, Caspase-3 (Homo sapiens, UniProt P42574); assay type: functional;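 note: Dose-response selectivity test against caspase-3 for candidate inhibitors of sentrin-specific proteases (SENPs)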
T2 sequence (P42574 whole entry): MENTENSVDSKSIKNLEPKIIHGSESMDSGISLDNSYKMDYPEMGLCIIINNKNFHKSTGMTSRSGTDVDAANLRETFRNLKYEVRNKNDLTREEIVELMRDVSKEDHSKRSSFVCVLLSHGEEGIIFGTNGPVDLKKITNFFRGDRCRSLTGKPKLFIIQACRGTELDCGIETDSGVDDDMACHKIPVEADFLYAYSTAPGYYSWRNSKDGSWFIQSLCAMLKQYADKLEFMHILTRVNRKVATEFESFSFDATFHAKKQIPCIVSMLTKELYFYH

[7] = molecular target: T3, Sentrin-specific protease 8 (Homo sapiens, UniProt Q96LD8); assay type: functional;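 note: luminescence read-out of SENP8 inhibition, dose-response confirmation following an ultra-high-throughput screen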
T3 sequence (Q96LD8 whole entry): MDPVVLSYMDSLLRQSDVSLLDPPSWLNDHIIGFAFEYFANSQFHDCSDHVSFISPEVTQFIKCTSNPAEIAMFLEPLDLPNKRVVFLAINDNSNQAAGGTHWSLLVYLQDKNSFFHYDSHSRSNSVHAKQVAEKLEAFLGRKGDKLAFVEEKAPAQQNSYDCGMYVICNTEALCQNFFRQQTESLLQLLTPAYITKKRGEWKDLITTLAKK

[8] = inhibitors of SNCA 5'UTR-driven reporter translation, confirmation, H4 neuroglioma cells, luminescence (AID 1988); assay type: functional, cell-based
[9] = Luminescence Cell-Based Dose Response HTS to Identify Inhibitors of 5'UTR Stem-Loop Driven Prion Protein mRNA Translation in H4 Neuroglioblastoma Cells. [Related pubchem assays: 1827 (Project Summary), 1813 (Primary HTS)]; assay type: functional
[10] = A549 cell cytotoxicity, dose response, cytotoxicity control, plate reader, cherry-pick, antagonist series (AID 743412); assay type: functional, cell-based
[11] = system: HEK293; assay: inhibitors of LMP1-driven NF-kB reporter, dose response, cell-based, HEK293, luciferase, cherry-pick (AID 588343); assay type: functional; details: Homo sapiens
[12] = HEK293 cell cytotoxicity, dose response, cytotoxicity control, plate reader, cherry-picked samples (AID 743446); assay type: functional, cell-based
[13] = molecular target: T4, Sentrin-specific protease 7 (Homo sapiens, UniProt Q9BQF6); assay type: functional;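 note: Luminescence-based dose-response confirmation of ultra-high-throughput screening hits, measuring inhibition of SENP7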
T4 sequence (Q9BQF6 whole entry): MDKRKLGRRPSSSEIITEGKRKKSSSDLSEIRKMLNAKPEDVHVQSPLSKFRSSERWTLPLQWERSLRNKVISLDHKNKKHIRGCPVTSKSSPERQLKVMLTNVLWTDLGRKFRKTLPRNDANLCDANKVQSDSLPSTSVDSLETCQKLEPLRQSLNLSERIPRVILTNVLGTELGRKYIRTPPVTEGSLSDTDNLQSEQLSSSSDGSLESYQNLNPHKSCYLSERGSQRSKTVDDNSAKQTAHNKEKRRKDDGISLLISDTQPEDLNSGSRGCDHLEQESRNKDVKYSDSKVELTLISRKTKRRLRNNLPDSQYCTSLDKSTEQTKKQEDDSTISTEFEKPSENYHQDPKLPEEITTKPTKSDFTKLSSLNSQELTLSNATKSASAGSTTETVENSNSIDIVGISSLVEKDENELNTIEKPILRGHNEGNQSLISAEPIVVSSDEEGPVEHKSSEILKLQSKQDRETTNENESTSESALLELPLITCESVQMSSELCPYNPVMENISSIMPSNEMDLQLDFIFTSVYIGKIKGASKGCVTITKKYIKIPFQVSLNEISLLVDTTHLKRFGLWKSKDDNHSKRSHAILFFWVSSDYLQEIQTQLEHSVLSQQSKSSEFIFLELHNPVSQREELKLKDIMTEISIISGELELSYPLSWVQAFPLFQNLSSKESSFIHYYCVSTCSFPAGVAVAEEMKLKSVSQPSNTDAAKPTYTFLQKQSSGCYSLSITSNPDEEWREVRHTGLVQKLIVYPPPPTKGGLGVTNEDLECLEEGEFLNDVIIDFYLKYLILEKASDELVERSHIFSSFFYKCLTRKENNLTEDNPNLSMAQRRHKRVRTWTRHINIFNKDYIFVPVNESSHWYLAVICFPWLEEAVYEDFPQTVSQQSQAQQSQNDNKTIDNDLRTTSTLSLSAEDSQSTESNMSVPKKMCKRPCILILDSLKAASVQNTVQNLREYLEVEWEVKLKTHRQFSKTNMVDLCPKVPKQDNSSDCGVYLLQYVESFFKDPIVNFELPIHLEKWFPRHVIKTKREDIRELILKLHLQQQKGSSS

[14] = molecular target: Protein Wnt-3a (Mus musculus, UniProt P27467); assay: Wnt3a-driven reporter signaling inhibition, dose response, selectivity assay for Gli-SUFU antagonist project, Wnt-LIGHT cells, luminescence (AID 651570); assay type: functional; details: read-out: IC50_Mean;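 note: Wnt-LIGHT reporter cells stimulated with conditioned medium from Wnt3a-producing cells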
[15] = Shn3 3'UTR reporter inhibitors, dose response, cell-based, Clone20 osteoblasts, firefly luciferase, cherry-picked (AID 624132); assay type: functional;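 note: firefly luciferase luminescence from reporter carrying the Shn3 3'UTR in osteoblasts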
[16] = HepG2 cell cytotoxicity, dose response, cytotoxicity control for Shn3 inhibitor project, CellTiter-Glo, cherry-picked (AID 624134); assay type: functional, cell-based
[17] = control 3'UTR Renilla luciferase suppression, dose response, counter-screen for Shn3 inhibitor project, cell-based, Clone20-Shn3RL, cherry-picked (AID 624133); assay type: functional
[18] = system: INS1; assay: beta cell apoptosis inhibitors, cytokine rescue, dose response, luminescence, retest (AID 449756); assay type: functional, cell-based; details: Rattus norvegicus;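 note: cell death triggered by IL-1 beta plus TNF-alpha plus IFN-gamma mixture; protective hits raise ATP signal compared with cytokine alone wells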
[19] = molecular target: T5, Probable nicotinate-nucleotide adenylyltransferase (Staphylococcus aureus (strain N315), UniProt P65502); assay type: functional, Staphylococcus aureus subsp. aureus N315;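 for IC50 Mean: confirmatory dose-response retesting of NadD inhibitor hits first found in an ultra-high-throughput screen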
[20] = molecular target: T5, Probable nicotinate-nucleotide adenylyltransferase; assay type: functional, Staphylococcus aureus subsp. aureus N315; details: read-out: IC50_Mean
[21] = system: BJ; assay: cells; assay type: functional, cell-based; details: Homo sapiens
[22] = system: BJ; assay: cytotoxicity toward BJ-TERT fibroblasts, dose response, cell-based, RAS-independent, luminescence (AID 1933); assay type: functional; details: Homo sapiens
[23] = molecular target: T6, Microphthalmia-associated transcription factor (Homo sapiens, UniProt O75030); assay: TRPM1 promoter luciferase signal decrease, dose response, MITF inhibitor project, cell-based, SK-MEL-5, cherry-picked, set 3 (AID 493073); assay type: functional
T6 sequence (O75030 whole entry): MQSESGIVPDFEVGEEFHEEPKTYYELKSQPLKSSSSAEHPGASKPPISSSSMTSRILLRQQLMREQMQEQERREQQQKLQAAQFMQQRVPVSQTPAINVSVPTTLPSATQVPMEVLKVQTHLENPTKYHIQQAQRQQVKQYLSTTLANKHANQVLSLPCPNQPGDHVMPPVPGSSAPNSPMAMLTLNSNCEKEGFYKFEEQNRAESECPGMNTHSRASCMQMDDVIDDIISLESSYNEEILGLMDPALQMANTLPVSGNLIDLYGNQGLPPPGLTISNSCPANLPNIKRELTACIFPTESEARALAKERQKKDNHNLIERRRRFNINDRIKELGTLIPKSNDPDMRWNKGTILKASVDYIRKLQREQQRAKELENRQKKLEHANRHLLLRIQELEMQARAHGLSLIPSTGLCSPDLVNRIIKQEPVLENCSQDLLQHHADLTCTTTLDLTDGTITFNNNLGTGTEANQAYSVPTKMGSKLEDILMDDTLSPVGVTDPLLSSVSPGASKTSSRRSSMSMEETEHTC

[24] = molecular target: Heat shock protein HSP 90-alpha (Homo sapiens, UniProt P07900); assay type: functional, organism-based
[25] = cytotoxicity toward DRD oncogenic fibroblasts, dose response, cell-based, non-viral oncogenic, luminescence (AID 1934); assay type: functional; details: Homo sapiens
[26] = system: BJ; assay: cytotoxicity toward BJ-TERT-LT-ST fibroblasts, dose response, cell-based, RAS-independent, luminescence (AID 1935); assay type: functional; details: Homo sapiens;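 note: BJ fibroblasts immortalized with TERT plus LT and ST oncogenes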
[27] = molecular target: T7, Heat shock factor protein 1 (Mus musculus, UniProt P38532); assay: HSF1 potentiators in luciferase reporter cells, confirmation, cell-based, NIH3T3, luminescence, dose retest (AID 435004); assay type: functional;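 note: stress induced by proteasome inhibitor MG132 added 30 min after compound; luciferase reporter driven by HSF1 response element in NIH3T3 cells; actives raise luminescence as potentiators of the MG132 stress response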
T7 sequence (P38532 whole entry): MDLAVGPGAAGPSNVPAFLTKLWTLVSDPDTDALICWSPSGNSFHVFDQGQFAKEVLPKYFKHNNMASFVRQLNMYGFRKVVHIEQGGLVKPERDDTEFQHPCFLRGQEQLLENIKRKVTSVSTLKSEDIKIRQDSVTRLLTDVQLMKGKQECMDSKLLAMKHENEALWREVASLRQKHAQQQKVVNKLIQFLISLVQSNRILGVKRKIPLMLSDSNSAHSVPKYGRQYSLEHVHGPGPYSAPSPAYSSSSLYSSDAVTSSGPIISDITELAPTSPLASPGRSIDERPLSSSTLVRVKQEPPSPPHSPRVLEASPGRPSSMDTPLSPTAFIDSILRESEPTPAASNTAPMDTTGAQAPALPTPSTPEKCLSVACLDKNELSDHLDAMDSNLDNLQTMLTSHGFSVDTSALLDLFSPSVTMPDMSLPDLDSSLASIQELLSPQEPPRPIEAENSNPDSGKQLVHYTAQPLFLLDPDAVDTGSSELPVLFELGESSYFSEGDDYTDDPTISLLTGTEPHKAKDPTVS

[28] = Fluorescence-based cell-based high throughput dose response assay for inhibitors of the interaction of nucleotide-binding oligomerization domain containing 2 (NOD2) and the receptor-interacting serine-threonine kinase 2 (RIPK2).; assay type: functional; details: Homo sapiens
[29] = molecular target: Photoreceptor-specific nuclear receptor (Homo sapiens, UniProt Q9Y5X4); assay type: functional, cell-based;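 note: CHO-S cells with Gal4-NCOR and VP16-NR2E3 two-hybrid luciferase reporter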
Chain of Photoreceptor-specific nuclear receptor (Q9Y5X4 whole entry, the tested form may be a part): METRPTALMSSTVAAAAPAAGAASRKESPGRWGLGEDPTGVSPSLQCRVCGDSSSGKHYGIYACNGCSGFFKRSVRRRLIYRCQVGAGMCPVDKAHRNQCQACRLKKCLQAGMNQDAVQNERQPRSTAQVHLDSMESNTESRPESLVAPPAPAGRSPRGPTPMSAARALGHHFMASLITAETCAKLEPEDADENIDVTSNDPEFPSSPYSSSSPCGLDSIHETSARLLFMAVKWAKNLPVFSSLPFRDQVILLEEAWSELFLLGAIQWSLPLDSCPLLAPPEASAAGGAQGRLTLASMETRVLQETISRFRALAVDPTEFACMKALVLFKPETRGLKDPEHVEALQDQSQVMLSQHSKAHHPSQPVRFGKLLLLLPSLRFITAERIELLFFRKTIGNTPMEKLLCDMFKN

T5 sequence (P65502 whole entry): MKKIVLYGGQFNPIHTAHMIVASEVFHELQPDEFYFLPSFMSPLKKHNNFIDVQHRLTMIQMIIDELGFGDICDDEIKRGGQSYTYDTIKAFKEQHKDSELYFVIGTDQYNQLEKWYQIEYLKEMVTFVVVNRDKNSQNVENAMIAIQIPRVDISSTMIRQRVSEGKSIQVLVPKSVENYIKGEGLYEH
Chain of Protein Wnt-3a (P27467 whole entry): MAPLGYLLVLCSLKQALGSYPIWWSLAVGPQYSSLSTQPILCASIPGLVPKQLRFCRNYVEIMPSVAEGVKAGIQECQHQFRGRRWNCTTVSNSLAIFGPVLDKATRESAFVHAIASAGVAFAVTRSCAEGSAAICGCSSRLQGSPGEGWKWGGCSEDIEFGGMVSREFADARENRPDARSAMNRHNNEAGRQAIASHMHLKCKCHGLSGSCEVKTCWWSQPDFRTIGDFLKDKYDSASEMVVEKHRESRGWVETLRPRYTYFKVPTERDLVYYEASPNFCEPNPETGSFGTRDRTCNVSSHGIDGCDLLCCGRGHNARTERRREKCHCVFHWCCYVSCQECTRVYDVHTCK
Chain of Adenosylmethionine-8-amino-7-oxononanoate aminotransferase (P9WQ81 whole entry): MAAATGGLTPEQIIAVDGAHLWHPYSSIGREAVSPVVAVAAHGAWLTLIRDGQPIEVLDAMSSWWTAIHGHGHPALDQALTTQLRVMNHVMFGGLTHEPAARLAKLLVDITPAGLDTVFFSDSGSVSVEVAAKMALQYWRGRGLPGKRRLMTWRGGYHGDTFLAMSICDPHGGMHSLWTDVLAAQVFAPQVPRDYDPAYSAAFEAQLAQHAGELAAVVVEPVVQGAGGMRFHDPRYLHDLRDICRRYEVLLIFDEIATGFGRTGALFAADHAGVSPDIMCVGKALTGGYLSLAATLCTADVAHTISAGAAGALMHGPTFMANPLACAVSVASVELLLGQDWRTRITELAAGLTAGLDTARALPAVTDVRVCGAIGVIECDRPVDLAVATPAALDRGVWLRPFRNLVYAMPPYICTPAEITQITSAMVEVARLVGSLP

CC(CNC(=O)CCCn1ncn2c(cc3occc32)c1=O)c1ccccc1 (stereo not drawn)
AC50 [1]: 0.785 µM (active)

Cc1ccc(/C=C/c2nc(O)c3ccccc3n2)cc1
AC50 [2]: 2.73 µM (active) | IC50 [3]: 0.961 µM (active) | AC50 [4]: > 52 µM (inactive) | AC50 [5]: 2.45 µM (active) | IC50 [6]: 0.999 µM (active) | IC50 [7]: 1.5 µM (active) | EC50 [8]: 4.45 µM (inconclusive) | EC50 [9]: 14.8 µM (active) | AC50 [10]: > 52 µM (inactive) | AC50 [11]: 1.88 µM (active) | AC50 [12]: > 52 µM (inactive) | IC50 [13]: 0.788 µM (active)

CC1CCC(NC(=O)c2cccc(S(=O)(=O)N3CCN(c4ccccc4)CC3)c2)CC1 (stereo not drawn)
IC50 [14]: 28.3 µM (inactive)

CC(CC(=O)N1CCN(c2cccc(Cl)c2)CC1)S(=O)(=O)c1ccc2c(c1)NC(=O)CO2 (stereo not drawn)
AC50 [15]: 3.99 µM (active) | AC50 [16]: 34.7 µM (active) | AC50 [17]: 5.37 µM (active) | IC50 [14]: 15.1 µM (active) | AC50 [18]: 5.65 µM (active)

CCC(C)n1c(=O)c(C(=O)Nc2ccccc2S(N)(=O)=O)c(O)c2ccccc21 (stereo not drawn)
IC50 [19]: 5.92 µM (active) | IC50 [20]: 41.1 µM (active)

COc1cc2c(cc1/C=C/[N+](=O)[O-])OCO2
EC50 [21]: 11.5 µM (inconclusive) | EC50 [22]: 8.89 µM (inconclusive) | AC50 [23]: 8.98 µM (active) | AC50 [24]: 4.25 µM (active) | EC50 [25]: 6.07 µM (active) | EC50 [26]: 8.52 µM (inconclusive) | EC50 [27]: 8.55 µM (active) | IC50 [28]: 3.19 µM (active)

COc1ccc(C)cc1NC(=O)c1nnn(Cc2cccc(C(F)(F)F)c2)c1N
IC50 [29]: 39.8 µM (inactive)

Cc1ccc(-c2nn(CCC(=O)Nc3cccnc3)c(=O)c3ccccc23)cc1
AC50 [1]: 0.148 µM (active)

O=C(CSc1nnc(SCc2ccccc2)s1)N/N=C/C=C/c1ccco1
IC50 [19]: 12 µM (active) | IC50 [20]: 27.6 µM (active)
